Values of other authors, collected in patent US7030094B2, “Immunostimulant compositions comprising an aminoalkyl glucosaminide phosphate and QS-21” (priority 2002, dated 2006).
Read-outs that look alike come from different tables or passages of the source.

Substance: QS-21
- critical micellar concentration (in phosphate buffered saline): ~0.02 % (w/v)
- critical micellar concentration (in water): about 0.03 % (w/v)
- concentration causing hemolysis of sheep red blood cells (sheep red blood cells): ≥ 25 µg/mL
